Test system: human hair follicles
Assay: Human hair follicle organ culture, hair follicle length growth evaluation 1
Assay type: cell-based
Details: for 6 days; exosomes 1.0×10^9 particles, minoxidil 1 μM
Experimental: In order to evaluate effects of the exosomes of the present invention on human hair follicle growth, a human hair follicle organ culture test (ex vivo hair follicle organ culture) was conducted. More specifically, scalp tissues were isolated into the unit of hair follicles, and the remaining hair follicles were used after cutting the part below the sebaceous gland of the isolated hair follicles. The prepared hair follicles were treated with Examples 1 and 2, and minoxidil as a positive control, respectively, and lengths of the hair growing on the 3rd and 6th days were measured, followed by comparing the measured results to the negative control in order to evaluate a length growth and a growth cycle of human hair follicles. […] The lengths of the hair follicles grown on the 3rd and 6th days of the culture, respectively, were measured using a microscope ruler.

## Nc1cc(N2CCCCC2)nc(N)[n+]1[O-] [minoxidil]
  growth of hair (hair follicle length): about 1.5 mm

From US20230218675A1, “EXOSOMES ISOLATED FROM DERMAL PAPILLA PROGENITOR CELLS, AND USE THEREOF” (CELLPARK GLOBAL, priority 2020, published 2023)
